Test results from patent publication EP3483233A1, “LUBRICANT BASE OIL COMPOSITIONS OF MONO-UNSATURATED DIBASIC ACID ESTERS WITH BRANCHED ALCOHOLS” (ARKEMA FRANCE, priority 2017, dated 2019).

Key:
Format in all cases: physicochemical
[1] = Solubility of lubricant additives in the basestocks
Procedure: Several typical lubricant additives have been tested for solubility in α-ω dibasic esters of 2-ethyl hexanol 26U18 and 26S12 as well as commercial basestock 350N. The additives were mixed in at temperatures of 50°C or lower and held for longer than a week at room temperature. Table 7. Solubility of lubricant additives, dissolved in α-ω dibasic esters and commercial basestocks
The additives were selected to represent different chemical categories: soaps, heterocycles, phosphorous derivatives, polymers, etc. Most of these additives are designed to be dissolved in paraffinic mineral oils and synthetic lubricants with some heating. It is often thought that esters are better solvents than mineral oils or synthetic hydrocarbons like poly α-olefins. Therefore, the tested concentrations were much higher than additive proportions for hydraulic fluids, as recommended by the additive manufacturers.

[2] = Thin film test, volatile losses (500 µm oil film on steel coupon, forced-draft oven, gravimetric); settings: 500 µm thick films at 120°C
Source text: (§1) The exact procedure, used here, has been described in detail by Stoncius, A. et al. in "Volatiles from Thin Film Degradation of Bio-based, Synthetic and Mineral Basestocks", published in Industrial Lubrication & Tribology, 2013, 65 (3) 209-215, 2013, Emerald Group Publishing Edition or by Brazinskiene, D. et al. in "Ester Basestock Vaporisation from Thin Oil Films", published in Lubrication Science, DOI: 10.1002/ls.1372, pp 1-17, 2017, Wiley Edition.
(§2) Briefly, an oil film of 500 µm thickness was coated on steel coupon and heated at given temperature for specific duration in a forced-draft oven. Afterwards, the volatile losses and insoluble residues were measured gravimetrically.
As discussed in the prior-art review, volatility can be successfully evaluated in a thin film test as described by Stoncius, A. et al. in "Volatiles from Thin Film Degradation of Bio-based, Synthetic and Mineral Basestocks" published in Industrial Lubrication & Tribology, 2013, 65 (3) 209-215, Emerald Group Publishing Edition or by Brazinskiene, D. et al. in "Ester Basestock Vaporisation from Thin Oil Films" published in Lubrication Science, DOI: 10.1002/ls.1372, pp 1-17, 2017, Wiley Edition. This thin-film method is much better suited for hydraulic fluid applications than NOACK or other tests, which employ 250°C or similar temperatures, related to engine oil applications. Also, the above method accounts for longer term decomposition reactions due to exposure to metal surfaces and oxidation, which is prevalent in hydraulic applications. Therefore, using the thin-film method short-term vapor losses were measured after 16 hrs and decomposition trends were compared after 36 hrs of testing. Heating temperature of 120°C was selected to compare thin films of α,ω dibasic esters with commercial basestocks. Table 5. Volatile emissions, % w/w from 500 µm thick films of α-ω dibasic esters and commercial basestocks at 120°C

[3] = Pour point and cloud point, cooling regime of ASTM D97
Procedure: Pour points and cloud points were determined using the same thermal cooling regime, as instructed by ASTM D97. The sample sizes were 5 to 15 mL during the measurements.
Cloud points were determined during the same run by visual inspection of the sample appearance at low temperature. The samples were removed from the freezer every 3°C for visual inspection and, if cloudy, meniscus movement with inversion. The pour point resembled the last measurement, at which the meniscus boundary was still moving within 5 seconds of horizontal inversion. All samples were tested in duplicate.
In engine oils and hydraulic fluids, low temperature fluidity is primarily determined by pour points [ASTM D97]. Generally, pour points below -30°C are considered sufficient. Some polymer additives, e.g. "Pour Point Depressants" (PPD), are able to improve low temperature fluidity. […] Therefore, initially pour points and cloud points [ASTM D2500 "Standard Test Method for Cloud Point of Petroleum Products and Liquid Fuels"] of α-ω dibasic esters were evaluated and shown in Table 4.

[4] = Thin film test, oxidative stability (time to insoluble residues and to solidification); settings: 500 µm thick films at 120°C
Source text: as §1, §2
Therefore, thin films of commercial basestocks and α-ω dibasic esters were compared by exposing their thin films to 120°C as described by Stoncius, A. et al. in "Volatiles from Thin Film Degradation of Bio-based, Synthetic and Mineral Basestocks" published in Industrial Lubrication & Tribology, 2013, 65 (3), 209-215, Emerald Group Publishing Edition or by Brazinskiene, D. et al. in "Ester Basestock Vaporisation from Thin Oil Films" published in Lubrication Science, DOI: 10.1002/ls.1372, pp 1-17, 2017, Wiley Edition.
The thin-film method determines how resistant oil is against formation of insoluble residues during oxidation. Degradation durations until initial formation of solid residues and complete solidification directly relate to oxidative stability.

[5] = Kinematic viscosity with capillary Cannon-Fenske viscometers; Viscosity Index calculated per ASTM D2270
Procedure: Kinematic viscosities at 40°C and 100°C were measured using capillary Cannon-Fenske viscometers per ASTM […]. Viscosity Index (the value, describing the rate of thinning with increasing temperature) was calculated per ASTM D2270.

## 1,18-di(2-ethylhexyl) octadec-9-enedioate [26U18]
[1]; Alkyl dithiocarbamate, mixed in at 50°C or lower, held longer than a week at room temperature
  Solubility of 1% w/w Vanlube 7723: soluble
[1]; Amine and phosphate derivatives, mixed in at 50°C or lower, held longer than a week at room temperature
  Solubility of 1% w/w Irgalube ML605A: soluble
[1]; Phosphoro dithioate, mixed in at 50°C or lower, held longer than a week at room temperature
  Solubility of 1% w/w Vanlube 7611 M: soluble
[1]; Poly alkyl methacrylate, mixed in at 50°C or lower, held longer than a week at room temperature
  Solubility of 5% w/w Viscoplex 10-310: soluble
[1]; Soap and ester derivatives, mixed in at 50°C or lower, held longer than a week at room temperature
  Solubility of 2% w/w Vanlube RI- A: soluble
[1]; Tolyl triazole, mixed in at 50°C or lower, held longer than a week at room temperature
  Solubility of 1% w/w Cobratec TT-100: soluble
[1]; all tested additives blended in, unchanged after 1 week at room temperature
  Initial solution appearance: bright and clear
[2]; 16 hrs
  Volatile emissions, 16 hrs: 5.5 % w/w
[2]; 36 hrs
  Volatile emissions, 36 hrs: 10.7 % w/w
[3]
  Pour point, °C: -57 °C
[3]; visual inspection during the same run
  Cloud point, °C: -36 °C
[4]
  Full solidification observed: 320 h
  Initial residues observed: 248 h
[4]; at the duration of full film solidification
  Vapor loss at solidification: 57% w/w
[5]; calculated per ASTM D2270 from viscosities at 40°C and 100°C
  Viscosity Index: 197
[5]; kinematic viscosity at 40°C
  Viscosity, mm^2/s at 40°C: 22.74 mm^2/s
[5]; kinematic viscosity at 100°C
  Viscosity, mm^2/s at 100°C: 5.53 mm^2/s
